Columns and labels:
Test in all cases: relative viability (nuclei count vs DMSO), 5 days (fraction); higher = more cells survive
NCI-H2087 = system: NCI-H2087
Procedure, shortened: (§1)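 Values are medians from duplicate plates. Each reflects relative viability, defined as the nuclei count of treated wells over that of vehicle wells. Lung cancer cell lines in 1536-well plates were pin-tool dosed one day after seeding with one drug alone or with a fixed anchor-drug dose plus five library-drug doses (not always all listed) in √10 steps, then fixed, stained and imaged at 4× after 5 days.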

NCI-H2126 = system: NCI-H2126
Procedure, shortened: as §1

NCI-H2347 = system: NCI-H2347
Procedure, shortened: as §1

NCI-H23 = system: NCI-H23
Procedure, shortened: as §1

NCI-H3122 = system: NCI-H3122
Procedure, shortened: as §1

NCI-H441 = system: NCI-H441
Procedure, shortened: as §1

NCI-H522 = system: NCI-H522
Procedure, shortened: as §1

NCI-H596 = system: NCI-H596
Procedure, shortened: as §1

NCI-H647 = system: NCI-H647
Procedure, shortened: as §1

NCI-H650 = system: NCI-H650
Procedure, shortened: as §1

NCI-H727 = system: NCI-H727
Procedure, shortened: as §1

NCI-H838 = system: NCI-H838
Procedure, shortened: as §1

`C[C@@H]1CN(CC(=O)Nc2ccc3c(c2)Cc2cccc(-c4cc(=O)cc(N5CCOCC5)o4)c2S3)C[C@H](C)O1` + CCNC(=O)c1noc(-c2cc(C(C)C)c(O)cc2O)c1-c1ccc(CN2CCOCC2)cc1 [Luminespib] (partner 0.01 µM) was tested. Which relative viability (NCI-H2087; first compound 0.04 µM) did it give?
The relative viability was 0.217.

What about the relative viability (NCI-H2087; first compound 0.1265 µM) of the same molecule?
The relative viability was 0.188.

What about the relative viability (NCI-H2087; first compound 0.4 µM) of the same molecule?
Its relative viability is 0.207.

What about the relative viability (NCI-H2087; first compound 4 µM) of the same molecule?
The relative viability was 0.168.

And the relative viability (NCI-H2126; first compound 0.04 µM)?
Its relative viability is 1.04.

And the relative viability (NCI-H2126; first compound 0.1265 µM)?
The relative viability was 0.881.

And the relative viability (NCI-H2126; first compound 0.4 µM)?
The relative viability was 0.863.

What about the relative viability (NCI-H2126; first compound 4 µM) of the same molecule?
The relative viability was 0.744.

What about the relative viability (NCI-H2347; first compound 0.04 µM) of the same molecule?
Its relative viability is 0.926.

And the relative viability (NCI-H2347; first compound 0.1265 µM)?
The relative viability was 0.475.

And the relative viability (NCI-H2347; first compound 0.4 µM)?
Its relative viability is 0.438.

What about the relative viability (NCI-H2347; first compound 4 µM) of the same molecule?
The relative viability was 0.534.

And the relative viability (NCI-H23; first compound 0.04 µM)?
Its relative viability is 0.205.

What about the relative viability (NCI-H23; first compound 0.1265 µM) of the same molecule?
Its relative viability is 0.213.

And the relative viability (NCI-H23; first compound 0.4 µM)?
The relative viability was 0.227.

And the relative viability (NCI-H23; first compound 4 µM)?
The relative viability was 0.178.

And the relative viability (NCI-H3122; first compound 0.04 µM)?
The relative viability was 0.0752.

And the relative viability (NCI-H3122; first compound 0.1265 µM)?
The relative viability was 0.102.

What about the relative viability (NCI-H3122; first compound 0.4 µM) of the same molecule?
Its relative viability is 0.0706.

What about the relative viability (NCI-H3122; first compound 4 µM) of the same molecule?
The relative viability was 0.0744.

What about the relative viability (NCI-H441; first compound 0.04 µM) of the same molecule?
The relative viability was 0.305.

What about the relative viability (NCI-H441; first compound 0.1265 µM) of the same molecule?
Its relative viability is 0.354.

And the relative viability (NCI-H441; first compound 0.4 µM)?
Its relative viability is 0.274.

And the relative viability (NCI-H441; first compound 4 µM)?
The relative viability was 0.309.

And the relative viability (NCI-H522; first compound 0.1265 µM)?
Its relative viability is 1.17.

And the relative viability (NCI-H522; first compound 0.4 µM)?
The relative viability was 1.06.

What about the relative viability (NCI-H522; first compound 4 µM) of the same molecule?
The relative viability was 0.896.

And the relative viability (NCI-H596; first compound 0.04 µM)?
Its relative viability is 1.16.

And the relative viability (NCI-H596; first compound 0.1265 µM)?
Its relative viability is 1.18.

And the relative viability (NCI-H596; first compound 0.4 µM)?
Its relative viability is 0.921.

And the relative viability (NCI-H596; first compound 4 µM)?
Its relative viability is 0.964.

What about the relative viability (NCI-H647; first compound 0.04 µM) of the same molecule?
Its relative viability is 0.121.

What about the relative viability (NCI-H647; first compound 0.1265 µM) of the same molecule?
The relative viability was 0.153.

And the relative viability (NCI-H647; first compound 0.4 µM)?
The relative viability was 0.152.

What about the relative viability (NCI-H647; first compound 4 µM) of the same molecule?
Its relative viability is 0.163.

What about the relative viability (NCI-H650; first compound 0.04 µM) of the same molecule?
Its relative viability is 0.836.

And the relative viability (NCI-H650; first compound 0.1265 µM)?
Its relative viability is 0.827.

And the relative viability (NCI-H650; first compound 0.4 µM)?
The relative viability was 0.831.

What about the relative viability (NCI-H650; first compound 4 µM) of the same molecule?
Its relative viability is 0.738.

What about the relative viability (NCI-H727; first compound 0.04 µM) of the same molecule?
Its relative viability is 0.362.

What about the relative viability (NCI-H727; first compound 0.1265 µM) of the same molecule?
Its relative viability is 0.603.

What about the relative viability (NCI-H727; first compound 0.4 µM) of the same molecule?
The relative viability was 0.37.

And the relative viability (NCI-H727; first compound 4 µM)?
Its relative viability is 0.388.

What about the relative viability (NCI-H838; first compound 0.04 µM) of the same molecule?
The relative viability was 0.383.

What about the relative viability (NCI-H838; first compound 0.1265 µM) of the same molecule?
The relative viability was 0.278.

And the relative viability (NCI-H838; first compound 0.4 µM)?
The relative viability was 0.286.

And the relative viability (NCI-H838; first compound 4 µM)?
The relative viability was 0.258.
